This data set is described as follows: in vitro. The conditions noted are these: rat, gh3-tre-luc cells.

Structures are written as SMILES. Structures can show the parent of a compound that is named as a salt. Non-standard residues stand in square brackets, D forms with d. Residues, ends and D or L forms follow the SMILES beside them. pGlu = O=C1CC[C@@H](C(=O)O)N1

In the case of `CCCCCCCCCCCCCCCCSCC(COC)COP(=O)([O-])OCC[N+](C)(C)C` (stereo not drawn) [Ilmofosine], the CC50 (as a rule, the concentration at which the toxic effect on the cells reaches its halfway point) at 24 h (AC50 (uM) modified / 1000) was 19.3 µM. `O=C(O)/C=C/C(=O)O` [Fumaric acid]: the CC50 at 24 h (AC50 (uM) modified / 1000) was greater than 100 µM.

Compound `CC(=O)CC(=O)Nc1ccccc1C` [N-(2-Methylphenyl)-3-oxobutanamide] showed a half-maximal cytotoxic concentration (CC50) at 24 h (AC50 (uM) modified / 1000) greater than 90 µM. `CS(=O)(=O)O` [Methanesulfonic acid] came in with a CC50 at 24 h (AC50 (uM) modified / 1000) greater than 90 µM. `Cc1ccc2c(c1)C(=O)OC2=O` [4-Methylphthalic anhydride]: the CC50 at 24 h (AC50 (uM) modified / 1000) is greater than 90 µM. The same measure, in the same setting: the result for `CC/C=C\C/C=C\C/C=C\CCCCCCCC(=O)OCC` [Ethyl linolenate] reads greater than 90 µM. Turning to `O=[N+]([O-])c1ccc(CBr)cc1` [4-Nitrobenzylbromide], the CC50 at 24 h (AC50 (uM) modified / 1000) is greater than 100 µM. On the same count and under the same terms, the result for `CCCCC(CC)COCCCN` (stereo not drawn) [3-((2-Ethylhexyl)oxy)propylamine] reads greater than 90 µM. On the same count and under the same terms, the result for `CCCCCc1cccc(=O)o1` [6-Pentyl-2H-pyran-2-one] reads greater than 90 µM; that for `C1CCC2CCCCC2C1` (stereo not drawn) [Decalin], greater than 90 µM; that for `C=CCCCCCC` [1-Octene], greater than 90 µM. On the same count and under the same terms, the result for `CCCCNC1CC(C)(C)NC(C)(C)C1` [N-Butyl-2,2,6,6-tetramethylpiperidin-4-amine] reads greater than 90 µM; that for `CC(C)Cc1ccccc1` [Isobutylbenzene], greater than 90 µM; that for `CCOc1ccc(N)c([N+](=O)[O-])c1` [4-Ethoxy-2-nitroaniline], greater than 90 µM. Compound `COc1ccc(CCC(C)=O)cc1` [4-(4-Methoxyphenyl)-2-butanone] had a CC50 at 24 h (AC50 (uM) modified / 1000) greater than 90 µM.

Where the note is “AC50 (uM) modified / 1000, Tox21_110001=Tox21_111697, viability, 1 nM T3 present, 24 h”, `CCNC(C)Cc1cccc(C(F)(F)F)c1` (stereo not drawn) [Fenfluramine] had a 50% cytotoxic concentration (CC50) at 24 h greater than 50 µM. Turning to `C[C@@H]1CN([C@H]2CC[C@](C#N)(c3ccc(F)cc3)CC2)CC[C@]1(C(=O)O)c1ccccc1` [Levocabastine hydrochloride], for the setting “AC50 (uM) modified / 1000”, the cytotoxic concentration (CC50) at 24 h was greater than 20 µM. As for `COc1ccc(Cl)cc1C` [4-Chloro-2-methylanisole], the CC50 at 24 h (AC50 (uM) modified / 1000) is greater than 100 µM.

`CCOc1nc2cccc(C(=O)O)c2n1Cc1ccc(-c2ccccc2-c2nnn[nH]2)cc1` [Candesartan] registered a CC50 at 24 h (AC50 (uM) modified / 1000) of 34.4 µM.

Under “AC50 (uM) modified / 1000”, `CCCCCC1C(=O)CCC1CC(=O)OC` (stereo not drawn) [Methyl dihydrojasmonate] had a CC50 at 24 h greater than 90 µM. Take `C[C@]12CCC(=O)C=C1CC[C@@H]1[C@@H]2CC[C@]2(C)C(=O)CC[C@@H]12` [4-Androstene-3,17-dione]: the CC50 at 24 h (AC50 (uM) modified / 1000, Tox21_110001=Tox21_110893, viability, 1 nM T3 present, 24 h) is greater than 50 µM and the CC50 at 24 h (AC50 (uM) modified / 1000, Tox21_110001=Tox21_202269, viability, 1 nM T3 present, 24 h) is greater than 90 µM.

As to `O=Cc1ccc(F)cc1` [4-Fluorobenzaldehyde], the CC50 at 24 h (AC50 (uM) modified / 1000) was greater than 90 µM. Turning to `CCCCCCCCCCCCCCN(CCO)CCO` [2,2'-(Tetradecylimino)diethanol], the CC50 at 24 h (AC50 (uM) modified / 1000) was determined as 23.3 µM. Same read-out and setting: the value for `COc1cc(CCN)cc(OC)c1OC` [Mescaline hydrochloride] was greater than 100 µM. Consider `CC(C)(C)OC(=O)N1CC(N)C1` [Lithium sulfate], for which the CC50 at 24 h (AC50 (uM) modified / 1000) is greater than 5 µM. Same read-out and setting: the value for `OCc1ccccn1` [Piconol] was greater than 50 µM; that for `O=C1c2ccccc2C(=O)c2c(O)c(O)cc(O)c21` [Purpurin] was 71.9 µM. The same measure, in the same setting: the value for `COc1ccc(Cc2nccc3cc(OC)c(OC)cc23)cc1OC` [Papaverine hydrochloride] was greater than 20 µM.

On to `CSSC` [Methyl disulfide], for which, under “AC50 (uM) modified / 1000, Tox21_110001=Tox21_201525, viability, 1 nM T3 present, 24 h”, the CC50 at 24 h is greater than 90 µM. As for `CCOCCOCCO` [2-(2-Ethoxyethoxy)ethanol], the CC50 at 24 h (AC50 (uM) modified / 1000) was greater than 90 µM. The compound `C1CS1` [Ethylene sulfide] showed a CC50 at 24 h (AC50 (uM) modified / 1000, Tox21_110001=Tox21_202917, viability, 1 nM T3 present, 24 h) greater than 90 µM. Where the note is “AC50 (uM) modified / 1000”, `CCCCCCCCCCCCCCCCCCOS(=O)(=O)O` [Octadecyl sulfate sodium salt] displayed a CC50 at 24 h of 53.1 µM. Where the note is “AC50 (uM) modified / 1000”, `OC(C#CCN1CCCC1)(c1ccccc1)c1ccccc1` [Butinoline] yielded a CC50 at 24 h of 35.3 µM. The same measure, in the same setting: the result for `CN(C)[C@@H]1C(=O)C(C(N)=O)=C(O)[C@@]2(O)C(=O)C3=C(O)c4c(O)cccc4[C@@](C)(O)[C@H]3[C@H](O)[C@@H]12` [Oxytetracycline] reads greater than 90 µM; that for `CCCCCCCCCCCCCOP(=O)(O)O` [Monotridecyl phosphate], greater than 90 µM.

Under “AC50 (uM) modified / 1000”, `CC(C)COC(=O)c1ccc(O)cc1` [Isobutylparaben] came in with a CC50 at 24 h greater than 90 µM.

For the compound `CC[C@H](C)[C@H](NC(=O)[C@H](Cc1ccccc1)NC(=O)[C@H](C)NC(=O)[C@H](CC(=O)O)NC(=O)[C@H](CCCCN)NC(=O)[C@H](CO)NC(=O)[C@@H]1CCCN1C(=O)[C@@H]1CCC(=O)N1)C(=O)NCC(=O)N[C@@H](CC(C)C)C(=O)N[C@@H](CCSC)C(N)=O` [Eledoisin] ([pGlu]PSKDAFIGLM-NH2), under “AC50 (uM) modified / 1000, Tox21_110001=Tox21_112815, viability, 1 nM T3 present, 24 h”, the CC50 at 24 h was greater than 50 µM.

Regarding `CCOC(=O)[C@H](CCc1ccccc1)N[C@@H](C)C(=O)N1CC2(C[C@H]1C(=O)O)SCCS2` [Spirapril hydrochloride], the CC50 at 24 h (AC50 (uM) modified / 1000) was greater than 50 µM. On the same count and under the same terms, the result for `Nc1cccc2c(N)cccc12` [1,5-Naphthalenediamine] reads greater than 90 µM; that for `Oc1ccc(Oc2ccccc2)cc1` [4-Phenoxyphenol], 35.8 µM. Still for that read-out and setting: the value for `CC(C)(C)OC(=O)c1cccc(N)c1` [tert-Butyl-3-aminobenzoate] was greater than 90 µM; that for `O=CCCl` [Chloroacetaldehyde] was greater than 90 µM; that for `Cn1c(=O)c2[nH]c(Br)nc2n(C)c1=O` [8-Bromotheophylline] was greater than 50 µM.

In turn, `O=c1[nH]nc(-c2ccc([N+](=O)[O-])o2)o1` [5-(5-Nitro-2-furyl)-1,3,4-oxadiazole-2-ol] yielded a CC50 at 24 h (AC50 (uM) modified / 1000) of 67.5 µM. Same read-out and setting: the value for `CCCCC(C=O)CC` (stereo not drawn) [2-Ethylhexanal] was greater than 90 µM; that for `Cc1cccc(C)c1NC(=O)CC12CCCN1CCC2` [Pilsicainide] was greater than 50 µM; that for `CO[C@@]1(NC(=O)C2SC(=C(C(N)=O)C(=O)O)S2)C(=O)N2C(C(=O)O)=C(CSc3nnnn3C)CS[C@@H]21` (stereo partly drawn) [Cefotetan] was greater than 20 µM. As to `N[C@@H](C=O)[C@@H](O)[C@@H](O)[C@H](O)CO` [Galactosamine hydrochloride], the CC50 at 24 h (AC50 (uM) modified / 1000) is greater than 90 µM. Where the note is “AC50 (uM) modified / 1000”, `CC(C)OC(=O)Nc1ccc2[nH]c(-c3cscn3)nc2c1` [Cambendazole] came in with a half-maximal cytotoxic concentration (CC50) at 24 h of 4.4 µM. The compound `CCC(C(N)=O)N1CCCC1=O` (stereo not drawn) [Etiracetam] returned a CC50 at 24 h (AC50 (uM) modified / 1000) greater than 50 µM. `CC/C(=C\C(=N/O)C(N)=O)C(C)[N+](=O)[O-]` (stereo not drawn) [FR900409] displayed a CC50 at 24 h (AC50 (uM) modified / 1000) greater than 90 µM. Still for that read-out and setting: the value for `Clc1c(Cl)c(Cl)c(Cl)c(Cl)c1Cl` [Hexachlorobenzene] was greater than 5 µM; that for `CC(=O)Nc1nnc(S(N)(=O)=O)s1` [Acetazolamide] was greater than 90 µM; that for `Cc1cccc(C)c1NC(=O)c1ccccc1C(=O)O` [Ftaxilide] was greater than 50 µM. As to `C[n+]1ccn(Cc2ccccc2)c1` [1-Benzyl-3-methylimidazolium chloride], under “AC50 (uM) modified / 1000”, the CC50 at 24 h was greater than 90 µM. Same read-out and setting: the value for `CC(=O)[C@H]1CC[C@H]2[C@@H]3CC=C4C[C@@H](O)CC[C@]4(C)[C@H]3CC[C@]12C` [Pregnenolone] was greater than 90 µM. Under “AC50 (uM) modified / 1000, Tox21_110001=Tox21_301886, viability, 1 nM T3 present, 24 h”, `O=[N+]([O-])c1ccc(Nc2ccc(Nc3ccccc3)c(S(=O)(=O)O)c2)c([N+](=O)[O-])c1` [C.I. Acid Orange 3] had a CC50 at 24 h of 76.1 µM.

Consider `CCCCC(CC)COC(=O)CCCCCCCCC(=O)OCC(CC)CCCC` (stereo not drawn) [Bis(2-ethylhexyl) decanedioate], for which, where the note is “AC50 (uM) modified / 1000”, the CC50 at 24 h was greater than 90 µM. `CCOc1ccc2c3c1O[C@H]1[C@@H](O)C=C[C@H]4[C@@H](C2)N(C)CC[C@@]341` [Ethylmorphine] showed a CC50 at 24 h (AC50 (uM) modified / 1000, Tox21_110001=Tox21_112610, viability, 1 nM T3 present, 24 h) greater than 50 µM. Where the note is “AC50 (uM) modified / 1000”, `CC1(C)[C@H](C(=O)OCc2coc(Cc3ccccc3)c2)[C@@H]1/C=C1\CCSC1=O` [Kadethrin] yielded a 50% cytotoxic concentration (CC50) at 24 h greater than 90 µM.

Compound `c1cc(CCCc2ccncc2)ccn1` [4,4'-Propane-1,3-diyldipyridine] came in with a CC50 at 24 h (AC50 (uM) modified / 1000) greater than 90 µM. Still for that read-out and setting: the result for `Oc1cccc2cc3cccc(O)c3c(O)c12` [1,8,9-Trihydroxyanthracene] reads greater than 90 µM.

Under “AC50 (uM) modified / 1000”, `CC(=O)O[C@H]1CC[C@H]2[C@@H]3CCC4=CC(=O)CCC4=C3C=C[C@]12C` [Trenbolone acetate] yielded a CC50 at 24 h greater than 50 µM. Still for that read-out and setting: the result for `CCCCC(CC)CN` (stereo not drawn) [2-Ethylhexylamine] reads greater than 90 µM; that for `COc1cc(OC)nc(Sc2cccc(Cl)c2C(=O)O)n1` [Pyrithiobac-sodium], greater than 90 µM; that for `O=C1C=CC(=O)O1` [2,5-Furandione], greater than 100 µM. The same measure, in the same setting: the value for `FC(Cl)(Cl)Cl` [Trichlorofluoromethane] was greater than 90 µM; that for `CC(C)(O)C(=O)Nc1ccc([N+](=O)[O-])c(C(F)(F)F)c1` [Hydroxyflutamide] was greater than 90 µM; that for `COc1ccc(NC(=O)CC(C)=O)cc1` [N-(4-Methoxyphenyl)-3-oxobutanamide] was greater than 90 µM.

In turn, `C[C@H](CN1CCCC1)C(=O)c1ccc(C(F)(F)F)cc1` [Lanperisone hydrochloride] came in with a cytotoxic concentration (CC50) at 24 h (AC50 (uM) modified / 1000) greater than 50 µM. In the case of `CC(C)N1C(=O)c2ccccc2NS1(=O)=O` [Bentazone], the CC50 at 24 h (AC50 (uM) modified / 1000) was greater than 90 µM. The same measure, in the same setting: the result for `COC(=O)N[C@H](C(=O)N[C@@H](Cc1ccccc1)[C@@H](O)CN(Cc1ccc(-c2ccccn2)cc1)NC(=O)[C@@H](NC(=O)OC)C(C)(C)C)C(C)(C)C` [Atazanavir] reads greater than 50 µM.

As for `CCCCCCCC=O` [Octanal], the CC50 at 24 h (AC50 (uM) modified / 1000) is greater than 90 µM.

For the compound `NS(=O)(=O)Cc1noc2ccccc12` [Zonisamide], the CC50 at 24 h (AC50 (uM) modified / 1000) was greater than 50 µM.
